According to PMC3201904 (Phytochemistry, 2011):

What follows are molecules tested against GABA A receptor α1β2γ2S (Rattus norvegicus, UniProt P18508+P62813+P63138) (assay: two-microelectrode voltage clamp, Xenopus oocytes, potentiation of GABA current).
Type: cell-based

Sequence of GABA A receptor α1β2γ2S (P62813 28-455): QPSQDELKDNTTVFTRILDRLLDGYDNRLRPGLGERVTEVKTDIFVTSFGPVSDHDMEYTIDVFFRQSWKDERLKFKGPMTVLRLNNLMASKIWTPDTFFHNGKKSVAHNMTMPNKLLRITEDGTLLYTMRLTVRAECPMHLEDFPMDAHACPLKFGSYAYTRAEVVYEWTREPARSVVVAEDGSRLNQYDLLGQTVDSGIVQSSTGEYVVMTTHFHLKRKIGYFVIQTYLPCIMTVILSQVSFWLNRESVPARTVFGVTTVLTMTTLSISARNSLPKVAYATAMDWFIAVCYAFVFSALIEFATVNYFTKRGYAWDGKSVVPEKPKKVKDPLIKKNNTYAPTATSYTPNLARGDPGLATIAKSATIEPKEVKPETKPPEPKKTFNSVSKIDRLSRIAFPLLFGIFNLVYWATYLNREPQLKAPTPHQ
Sequence of GABA A receptor α1β2γ2S (P63138 26-474): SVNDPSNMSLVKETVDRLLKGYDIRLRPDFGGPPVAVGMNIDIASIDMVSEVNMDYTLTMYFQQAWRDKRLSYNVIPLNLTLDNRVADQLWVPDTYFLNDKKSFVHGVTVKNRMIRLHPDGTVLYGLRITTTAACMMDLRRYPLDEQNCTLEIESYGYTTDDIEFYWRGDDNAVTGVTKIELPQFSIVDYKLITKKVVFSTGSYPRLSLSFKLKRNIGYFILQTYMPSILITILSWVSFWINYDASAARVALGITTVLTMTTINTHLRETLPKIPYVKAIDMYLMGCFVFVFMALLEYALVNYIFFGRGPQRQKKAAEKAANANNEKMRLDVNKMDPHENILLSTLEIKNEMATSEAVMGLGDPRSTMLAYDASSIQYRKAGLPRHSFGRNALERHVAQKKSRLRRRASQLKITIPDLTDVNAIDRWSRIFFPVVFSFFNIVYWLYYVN
Sequence of GABA A receptor α1β2γ2S (P18508 39-466): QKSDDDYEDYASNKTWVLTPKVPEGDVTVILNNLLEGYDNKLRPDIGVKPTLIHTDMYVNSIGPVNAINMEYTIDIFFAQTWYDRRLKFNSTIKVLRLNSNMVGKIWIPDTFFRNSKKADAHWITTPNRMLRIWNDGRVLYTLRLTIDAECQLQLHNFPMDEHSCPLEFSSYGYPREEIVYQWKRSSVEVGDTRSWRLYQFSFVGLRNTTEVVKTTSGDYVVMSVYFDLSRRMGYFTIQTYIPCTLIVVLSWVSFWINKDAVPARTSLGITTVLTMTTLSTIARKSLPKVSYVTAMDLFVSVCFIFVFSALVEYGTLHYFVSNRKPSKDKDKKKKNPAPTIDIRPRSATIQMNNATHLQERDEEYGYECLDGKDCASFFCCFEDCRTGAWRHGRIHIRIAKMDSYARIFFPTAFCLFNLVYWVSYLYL

| Compound | EC50 |
| --- | --- |
| CC1(C)CCC[C@]1(C)C1=CC=C(C(=O)O)CC1 [compound 12, (−)-5,6-dihydrocuparenic acid] | 118 ± 29.9 µM |
| C=CC(=C)CC[C@@H](OC(=O)/C=C/c1ccccc1)C(C)(C)O [compound 7, (+)-6-cinnamoyl-6,7-dihydro-7-myrceneol] | 70.6 ± 12.2 µM |
| COc1cc(C[C@H](C)[C@H](C)Cc2ccc3c(c2)OCO3)ccc1O [compound 11, anwulignan] | 31.5 ± 7.1 µM |
| COc1cc(C[C@@H](C)[C@@H](C)Cc2ccc(O)c(OC)c2)ccc1O [compound 5, dihydroguaiaretic acid] | 79.2 ± 19.4 µM |
| COc1cc(C[C@H](C)[C@H](C)Cc2ccc(OC)c(OC)c2)ccc1O [compound 8, mono-methyl dihydroguaiaretic acid] | 54.6 ± 28.8 µM |
